How the values were obtained:
HPAEC = assay: SA-β-gal staining, high glucose-induced senescence; type: cell-based, human; conditions: 5 μM and 20 μM pretreatment 2 hours, 33 mM high glucose 72 hours, dose-dependent
Protocol: (§1) Similar to Experimental Example 1, a high-fat diet evaluation system at the cellular level was established.
(§2) Specifically, two types of vascular endothelial cells, namely, HUVEC and HPAEC cells, were pretreated with Saikosaponin C at concentrations of 5 μM and 20 μM for 2 hours, and then treated with high glucose at a concentration of 33 mM for 72 hours (for SA-β-gal staining) or 48 hours (for vascular senescence marker protein analysis). Then, the degree of cellular senescence was measured through SA-β-gal staining and measured as the ratio of the total cells to cells stained in blue (SA-β-gal positive). In addition, the expression of vascular senescence marker proteins such as PAI-1, ICAM-1, and VCAM-1 was analyzed.
(§3) Specifically, the senescence of vascular endothelial cells was evaluated by SA-β-gal staining to measure the activity of β-galactosidase, which is an enzyme present in the lysosome, an organelle within the cell (FIG. 3C and FIG. 3D) and this was represented as a graph (FIG. 3A and FIG. 3B). In addition, FIGS. 3E and 3F show the results of Western blotting to determine the expression of vascular senescence marker proteins such as PAI-1, ICAM-1, and VCAM-1 in two types of vascular endothelial cells (HUVEC, HPAEC).

HUVEC [1] = assay: SA-β-gal staining, high glucose-induced senescence; type: cell-based, human; conditions: 5 μM and 20 μM pretreatment 2 hours, 33 mM high glucose 72 hours, dose-dependent
Protocol: as §1, §2, §3

Sirt1 in HPAEC = assay: Sirt1 activity assay kit and Western blotting (expression, phosphorylation); type: cell-based, human; conditions: 5 μM and 20 μM pretreatment 2 hours, 33 mM high glucose 36 hours, dose-dependent
Protocol: as §1
(§4) Specifically, two types of vascular endothelial cells, namely, HUVEC and HPAEC cells, were pretreated with Saikosaponin C at concentrations of 5 μM and 20 μM for 2 hours, and then treated with high glucose at a concentration of 33 mM for 36 hours. Then, Sirt1 activity, protein expression and phosphorylation levels were analyzed.
(§5) Sirt1 activity was measured using the Sirt1 Activity Assay Kit (FIG. 7A and FIG. 7B), and Sirt1 protein expression and phosphorylation (Ser27, Ser47) were measured through Western blotting (FIG. 7C and FIG. 7D).

Sirt1 in HUVEC = assay: as above; type: cell-based, human; conditions: 5 μM and 20 μM pretreatment 2 hours, 33 mM high glucose 36 hours, dose-dependent
Protocol: as §1, §4, §5

HUVEC [2] = assay: Mechanism study: SA-β-gal staining with NOS and Sirt1 inhibitors; type: cell-based, human; conditions: 20 μM pretreatment 2 hours, 33 mM high glucose 72 hours
Protocol: Similar to Experimental Example 1, a high-fat diet evaluation system at the cellular level was established. Specifically, […], which are vascular endothelial cells, were pretreated with Saikosaponin C at a concentration of 20 μM for 2 hours, and then treated with high glucose at a concentration of 33 mM for 72 hours (for SA-β-gal staining) or 36 hours (for the analysis of enzyme activity of NOS and Sirt1). Then, SA-β-gal staining, NOS enzyme activity, and Sirt1 enzyme activity were analyzed. To analyze whether or not NOS and Sirt1 protein are involved in the anti-vascular aging effect of Saikosaponin C and the relationship between NOS and Sirt1 protein, L-NG-nitro arginine methyl ester (L-NAME) (5 mM), an inhibitor of NOS, and EX-527 (10 μM), an inhibitor of Sirt1 protein, were used. […] The senescence of vascular endothelial cells was assessed through intracellular SA-β-gal staining (FIG. 8A). The activities of NOS (FIG. 8B) and Sirt1 protein (FIG. 8C) were measured using the NOS Activity Assay Kit and the Sirt1 Activity Assay Kit, respectively.

HCAEC = assay: Monocyte-endothelial cell adhesion caused by TNF-α (Calcein AM-labeled THP-1); type: cell-based, human; conditions: 5 μM and 20 μM pretreatment 2 hours, TNF-α 20 ng/ml 8 hours, THP-1 monocytes
Protocol: (§6) Specifically, two types of vascular endothelial cells, namely, HUVEC (human umbilical vein endothelial cells) and HCAEC (human coronary artery endothelial cells), were pretreated with Saikosaponin C at concentrations of 5 μM and 20 μM for 2 hours, and then treated with TNF-α (20 ng/ml) for 8 hours. Then, adhesion of monocyte-vascular endothelial cell and expression of cell adhesion molecules (ICAM-1, VCAM-1) of vascular endothelial cells were observed. […] The adhesion of monocyte-endothelial cells was evaluated by imaging analysis using a confocal microscope and fluorescence analysis using a microplate reader, and expression of adhesion proteins (ICAM-1 and VCAM-1) was evaluated by Western blotting.
(§7) Calcein AM fluorescence was analyzed using a confocal microscope and a microplate reader, and the expression of cell adhesion proteins (ICAM-1, VCAM-1) were evaluated through Western blotting.
(§8) FIGS. 9A and 9B show the results of analysis of monocyte-endothelial cell adhesion in two types of vascular endothelial cells (HUVEC, HCAEC) using a confocal microscope, and FIGS. 9C and 9D show the results of analysis of Calcein AM fluorescence (at an excitation wavelength of 488 nm, and at an emission wavelength of 517 nm) in the same experiment using a microplate reader. […]

HUVEC [3] = assay: as above; type: cell-based, human; conditions: 5 μM and 20 μM pretreatment 2 hours, TNF-α 20 ng/ml 8 hours, THP-1 monocytes
Protocol: as §6, §7, §8

[4] = system: ICAM-1 and VCAM-1 in HCAEC; assay: Western blotting of adhesion proteins after TNF-α; type: cell-based, human; conditions: 5 μM and 20 μM pretreatment 2 hours, TNF-α 20 ng/ml 8 hours
Protocol: as §6, §7, §8

[5] = system: ICAM-1 and VCAM-1 in HUVEC; assay: Western blotting of adhesion proteins after TNF-α; type: cell-based, human; conditions: 5 μM and 20 μM pretreatment 2 hours, TNF-α 20 ng/ml 8 hours
Protocol: as §6, §7, §8

[6] = system: THP-1 cells differentiated into macrophages; assay: Macrophage foam cell formation by ox-LDL (Oil Red O staining); type: cell-based, human; conditions: PMA-differentiated THP-1 macrophages; 5 μM and 20 μM pretreatment 2 hours, ox-LDL 100 μg/ml 24 hours
Protocol: The differentiated macrophages were pretreated with Saikosaponin C at concentrations of 5 μM and 20 μM for 2 hours, and then treated with oxidized LDL (ox-LDL) (100 μg/ml), a foam cell inducer, for 24 hours. Then, the formation of foam cells from macrophages was observed. The foam cell formation was evaluated by microscopic analysis after Oil Red O staining of adsorbed lipid molecules and absorbance analysis using a microplate reader.
The nucleus was stained with hematoxylin dye for 1 minute.

NLRP3 inflammasome = NLRP3 inflammasome (Homo sapiens, UniProt Q96P20); assay: NLRP3 inflammasome activity: caspase-1 cleavage (Western blotting); conditions: PMA-differentiated THP-1 macrophages; 20 μM pretreatment 2 hours, MSU 200 μg/ml 6 hours
NLRP3 inflammasome, sequence (Q96P20 whole entry): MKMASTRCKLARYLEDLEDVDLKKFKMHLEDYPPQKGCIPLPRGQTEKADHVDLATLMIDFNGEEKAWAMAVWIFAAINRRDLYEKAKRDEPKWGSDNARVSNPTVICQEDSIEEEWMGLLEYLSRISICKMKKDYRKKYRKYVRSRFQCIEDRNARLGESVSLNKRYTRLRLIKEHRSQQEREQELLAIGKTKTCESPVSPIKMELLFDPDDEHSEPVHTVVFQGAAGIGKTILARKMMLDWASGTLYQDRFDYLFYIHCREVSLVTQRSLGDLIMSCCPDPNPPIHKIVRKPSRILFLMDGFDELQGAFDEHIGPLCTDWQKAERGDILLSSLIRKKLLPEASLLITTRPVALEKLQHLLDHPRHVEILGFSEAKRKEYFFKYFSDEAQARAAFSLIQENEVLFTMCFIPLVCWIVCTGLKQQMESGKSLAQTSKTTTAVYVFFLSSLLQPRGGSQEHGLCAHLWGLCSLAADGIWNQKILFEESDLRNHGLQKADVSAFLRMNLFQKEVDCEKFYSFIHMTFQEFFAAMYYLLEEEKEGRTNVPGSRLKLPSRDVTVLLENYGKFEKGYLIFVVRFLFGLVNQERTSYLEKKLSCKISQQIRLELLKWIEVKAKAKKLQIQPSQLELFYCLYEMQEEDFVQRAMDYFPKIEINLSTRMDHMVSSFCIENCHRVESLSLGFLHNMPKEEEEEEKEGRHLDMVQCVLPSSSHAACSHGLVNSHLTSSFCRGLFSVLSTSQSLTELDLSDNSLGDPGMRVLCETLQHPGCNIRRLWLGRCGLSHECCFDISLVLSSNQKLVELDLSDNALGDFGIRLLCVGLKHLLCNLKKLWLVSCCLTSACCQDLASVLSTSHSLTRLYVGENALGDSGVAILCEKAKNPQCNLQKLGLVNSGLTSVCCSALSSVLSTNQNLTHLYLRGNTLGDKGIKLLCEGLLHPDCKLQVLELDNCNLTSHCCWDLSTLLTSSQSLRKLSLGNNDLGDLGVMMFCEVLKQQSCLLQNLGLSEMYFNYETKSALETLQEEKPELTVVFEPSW

SMILES: CC1O[C@@H](O[C@@H]2C(CO[C@@H]3OC(CO)[C@@H](O)C(O)C3O)O[C@@H](O[C@H]3CC[C@]4(C)[C@H]5C=C[C@]67OC[C@@]8(CCC(C)(C)C[C@H]86)[C@@H](O)C[C@@]7(C)[C@]5(C)CC[C@H]4C3(C)C)C(O)C2O)C(O)C(O)[C@H]1O (some centres unmarked) [Saikosaponin C]
- high glucose-induced SA-β-gal positive cells (HPAEC): significantly reduced
- high glucose-induced SA-β-gal positive cells (HUVEC [1]): significantly reduced
- high glucose-induced decrease in Sirt1 enzyme activity, protein expression, and phosphorylation (Sirt1 in HPAEC): significantly alleviated
- high glucose-induced decrease in Sirt1 enzyme activity, protein expression, and phosphorylation (Sirt1 in HUVEC): significantly alleviated
- high glucose-induced SA-β-gal positive HUVEC cells (HUVEC [2]): reduced
- monocyte-endothelial cell adhesion caused by TNF-α (HCAEC): inhibited
- monocyte-endothelial cell adhesion caused by TNF-α (HUVEC [3]): inhibited
- expression of adhesion proteins (ICAM-1, VCAM-1) of vascular endothelial cells [4]: inhibited
- expression of adhesion proteins (ICAM-1, VCAM-1) of vascular endothelial cells [5]: inhibited
- foam cell formation by lipid deposition (Oil Red O) [6]: suppressed
- caspase-1 cleavage (NLRP3 inflammasome): inhibited
